Source: US8067423B2, “Polymorphs of dasatinib isopropyl alcohol and process for preparation thereof” (Teva Pharmaceutical Industries Ltd., priority 2007, dated 2011)
Values belong to the compound of their own block, whether it stands above or below them.

Columns and labels:
Assay type in all cases: physicochemical
[1] = Slurry of form N-6 in methanol: conversion to form B, solid phase analyzed by PXRD; details: for content of form B in the recovered solid (PXRD): form N-6 75 mg slurried in 1 ml methanol, filtered, dried on air
Method: (§1) XRD diffraction was performed on X-Ray powder diffractometer: Philips X'pert Pro powder diffractometer, CuKα radiation, λ=1.5418 Å. X'Celerator detector active length (2 theta)=2.122°, laboratory temperature 22-25° C. Zero background sample holders. Prior to analysis the samples were gently ground by means of mortar and pestle in order to obtain a fine powder. The ground sample was adjusted into a cavity of the sample holder and the surface of the sample was smoothed by means of a cover glass.
Dasatinib (form N-6, 75 mg) was put into vial and 1 ml of methanol was added. The slurry was then left at 0° C. for 2 days. The solid phase was filtered off and left to dry on air.
Dasatinib (form N-6, 75 mg) was put into vial and 1 ml of methanol was added. The slurry was then left at 20° C. for 2 days respectively. The solid phase was filtered off and left to dry on air.

[2] = Blend with excipients pressed to a tablet, analyzed by PXRD; details: 70 mg form A3 with lactose monohydrate, magnesium stearate, microcrystalline celulose, hydroxypropylmethyl celulose
Method: as §1

[3] = Heating of form A3 on oil bath up to 208° C., MS check; details: 200 mg heated gradually up to 208° C. at final 0.7 Pa for about 15 min
Method: Dasatinib (200 mg, form A3) was heated on oil bath gradually up to 208° C. at final 0.7 Pa for about 15 min.

content of form B in the recovered solid (PXRD) ([1]; left at 0° C. for 2 days): about 10% | content of form B in the recovered solid (PXRD) ([1]; left at 20° C. for 2 days): about 1% | polymorphic conversion on slurrying ([1]; slurried at about 20° C. to about 0° C. for 2 days): converted to form B
Structure (SMILES): Cc1nc(Nc2ncc(C(=O)Nc3c(C)cccc3Cl)s2)cc(N2CCN(CCO)CC2)n1 [form N-6, dasatinib]

stability of the crystalline form ([1]; at a temperature of about 20° C. and below): relatively stable
Structure (SMILES): Cc1nc(Nc2ncc(C(=O)Nc3c(C)cccc3Cl)s2)cc(N2CCN(CCO)CC2)n1 [form B, dasatinib]

crystalline form found in the pressed tablet (PXRD) [2]: belonging to form A3 | chemical change on heating (MS) [3]: without any chemical change | sublimation on heating [3]: None sublimation was observed
Structure (SMILES): Cc1nc(Nc2ncc(C(=O)Nc3c(C)cccc3Cl)s2)cc(N2CCN(CCO)CC2)n1 [form A3, dasatinib]
